Measured values reported in ChEMBL document CHEMBL1201862, “PubChem BioAssay data set” (2004).
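Assay format: 96-well plates, 48-hour exposure. Abbreviation: GI50, concentration required for 50% inhibition of growth.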 Active and inactive are the calls of the source. No stated cut-off is given here; in the data, active = GI50 up to about 1.1 µM and inactive = higher.

Experiments:
Experiment in all cases: DTP human tumour cell line panel, 48 h
Hs-578T = tested on: Hs-578T
UACC-62 = tested on: UACC-62
A549 = tested on: A549
SNB-19 = tested on: SNB-19
HL-60 = tested on: HL-60
CCRF-CEM = tested on: CCRF-CEM
HCT-116 = tested on: HCT-116
SK-MEL-5 = tested on: SK-MEL-5
HCC 2998 = tested on: HCC 2998
EKVX = tested on: EKVX
BT-549 = tested on: BT-549
SF-295 = tested on: SF-295
MDA-MB-231 = tested on: MDA-MB-231
SF-539 = tested on: SF-539
786-0 = tested on: 786-0
NCI-H522 = tested on: NCI-H522
MDA-MB-435 = tested on: MDA-MB-435
OVCAR-4 = tested on: OVCAR-4
UACC-257 = tested on: UACC-257
COLO 205 = tested on: COLO 205
PC-3 = tested on: PC-3
MDA-N = tested on: MDA-N
M14 = tested on: M14
SW-620 = tested on: SW-620
U-251 = tested on: U-251
HOP-62 = tested on: HOP-62
MCF7 = tested on: MCF7
HT-29 = tested on: HT-29
HCT-15 = tested on: HCT-15
OVCAR-8 = tested on: OVCAR-8
K562 = tested on: K562
NCI-H23 = tested on: NCI-H23
SN12C = tested on: SN12C
SK-OV-3 = tested on: SK-OV-3
LOX IMVI = tested on: LOX IMVI
NCI-H226 = tested on: NCI-H226
ACHN = tested on: ACHN
UO-31 = tested on: UO-31
OVCAR-3 = tested on: OVCAR-3
SK-MEL-28 = tested on: SK-MEL-28
DU-145 = tested on: DU-145
IGROV-1 = tested on: IGROV-1
SK-MEL-2 = tested on: SK-MEL-2
SNB-75 = tested on: SNB-75
NCI/ADR-RES = tested on: NCI/ADR-RES
OVCAR-5 = tested on: OVCAR-5
RXF 393 = tested on: RXF 393
SF-268 = tested on: SF-268
CAKI-1 = tested on: CAKI-1
HOP-92 = tested on: HOP-92
A498 = tested on: A498
SR = tested on: SR
Malme-3M = tested on: Malme-3M
NCI-H460 = tested on: NCI-H460
TK-10 = tested on: TK-10
MOLT-4 = tested on: MOLT-4
RPMI-8226 = tested on: RPMI-8226
KM12 = tested on: KM12

Measured: GI50

NC1=C(c2nc(-c3ccccc3)cs2)C(c2ccco2)c2c(c3ccccc3oc2=O)O1 (stereo unspecified)
inactive: Hs-578T 3.32 µM | UACC-62 > 100 µM | A549 > 100 µM | SNB-19 > 100 µM | HL-60 > 100 µM | CCRF-CEM > 100 µM | HCT-116 > 100 µM | SK-MEL-5 > 100 µM | HCC 2998 > 100 µM | EKVX > 100 µM | BT-549 > 100 µM | SF-295 > 100 µM | MDA-MB-231 > 100 µM | SF-539 > 100 µM | 786-0 > 100 µM | NCI-H522 76.2 µM | MDA-MB-435 > 100 µM | OVCAR-4 > 100 µM | UACC-257 > 100 µM | COLO 205 > 100 µM | PC-3 > 100 µM | MDA-N > 100 µM | M14 > 100 µM | SW-620 > 100 µM | U-251 > 100 µM | HOP-62 > 100 µM | MCF7 > 100 µM | HT-29 > 100 µM | OVCAR-8 > 100 µM | K562 > 100 µM | NCI-H23 > 100 µM | SN12C > 100 µM | SK-OV-3 > 100 µM | LOX IMVI > 100 µM | NCI-H226 38.2 µM | ACHN > 100 µM | UO-31 > 100 µM | OVCAR-3 > 100 µM | SK-MEL-28 > 100 µM | DU-145 > 100 µM | IGROV-1 > 100 µM | SK-MEL-2 > 100 µM | SNB-75 > 100 µM | NCI/ADR-RES > 100 µM | OVCAR-5 > 100 µM | RXF 393 40.5 µM | SF-268 > 100 µM | CAKI-1 > 100 µM | HOP-92 53.3 µM | A498 > 100 µM | SR > 100 µM | Malme-3M > 100 µM | NCI-H460 > 100 µM | TK-10 > 100 µM
> 100 µM: HCT-15

O=c1[nH]c2ccc(CC(=S)N3CCN(c4ccccc4)CC3)cc2s1
inactive: Hs-578T 13.8 µM | UACC-62 62.7 µM | SNB-19 > 100 µM | HL-60 > 100 µM | CCRF-CEM 68.9 µM | HCT-116 33.9 µM | EKVX 26.5 µM | BT-549 26.6 µM | SF-295 12.9 µM | MDA-MB-231 21.9 µM | SF-539 28 µM | 786-0 34.4 µM | MDA-MB-435 72.8 µM | UACC-257 > 100 µM | COLO 205 57.1 µM | PC-3 18.3 µM | MOLT-4 16.5 µM | MDA-N > 100 µM | M14 23.1 µM | SW-620 71.9 µM | U-251 3.95 µM | HOP-62 16.6 µM | MCF7 92 µM | HT-29 51.8 µM | RPMI-8226 12.7 µM | OVCAR-8 14.3 µM | K562 48.2 µM | NCI-H23 20.7 µM | SN12C 70.6 µM | SK-OV-3 15.7 µM | LOX IMVI 67 µM | NCI-H226 14.3 µM | ACHN 18 µM | OVCAR-3 23.4 µM | SK-MEL-28 > 100 µM | DU-145 51.6 µM | IGROV-1 9.16 µM | SK-MEL-2 82.2 µM | NCI/ADR-RES 13.2 µM | OVCAR-5 15.7 µM | RXF 393 18 µM | SF-268 26.1 µM | CAKI-1 77.1 µM | A498 62.2 µM | SR 19.9 µM | KM12 26.2 µM | Malme-3M 13.5 µM | NCI-H460 13 µM | TK-10 36.6 µM
42.2 µM: HCT-15
active: UO-31 0.063 µM
